In patent publication US9775904B2 (priority 2014, dated 2017):
Like-named read-outs stand apart in the source and are kept apart here.

Tests used:
[1] = molecular target: T1, human GIP receptor (hGIP-R) (Homo sapiens, UniProt P48546); assay: cAMP response of HEK-293 cells expressing human GIP receptor (HTRF); type: cell-based
T1 construct: expressed in transfected cells
T1 sequence (P48546 22-466): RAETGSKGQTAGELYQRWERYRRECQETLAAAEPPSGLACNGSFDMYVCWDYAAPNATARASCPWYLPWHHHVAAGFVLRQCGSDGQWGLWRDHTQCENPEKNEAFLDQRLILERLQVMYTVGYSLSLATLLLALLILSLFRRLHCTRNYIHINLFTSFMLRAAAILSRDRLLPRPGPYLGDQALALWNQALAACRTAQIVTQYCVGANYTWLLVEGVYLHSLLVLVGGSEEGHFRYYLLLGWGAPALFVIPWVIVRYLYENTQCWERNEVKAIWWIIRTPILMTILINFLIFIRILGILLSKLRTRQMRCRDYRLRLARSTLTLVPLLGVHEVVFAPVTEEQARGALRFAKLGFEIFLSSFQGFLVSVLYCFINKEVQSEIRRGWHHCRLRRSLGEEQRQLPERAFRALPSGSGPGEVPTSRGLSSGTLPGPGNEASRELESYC
Experimental: (§1) cAMP content of cells was determined using a kit from Cisbio Corp. (cat. no. 62AM4PEC) based on HTRF (Homogenous Time Resolved Fluorescence). For preparation, cells were split into T175 culture flasks and grown overnight to near confluency in medium (DMEM/10% FBS). Medium was then removed and cells washed with PBS lacking calcium and magnesium, followed by proteinase treatment with accutase (Sigma-Aldrich cat. no. A6964). Detached cells were washed and resuspended in assay buffer (1×HBSS; 20 mM HEPES, 0.1% BSA, 2 mM IBMX) and cellular density determined. They were then diluted to 400000 cells/ml and 25 μl-aliquots dispensed into the wells of 96-well plates. For measurement, 25 μl of test compound in assay buffer was added to the wells, followed by incubation for 30 minutes at room temperature.

[2] = molecular target: T2, human GLP-1 receptor (hGLP-1 R) (Homo sapiens, UniProt P43220); assay: cAMP response of HEK-293 cells expressing human GLP-1 receptor (HTRF); type: cell-based; conditions: Table 6
T2 construct: expressed in transfected cells
Experimental: as §1

[3] = molecular target: T3, human glucagon receptor (hGlucagon R) (Homo sapiens, UniProt P47871); assay: cAMP response of HEK-293 cells expressing human glucagon receptor (HTRF); type: cell-based
T3 construct: expressed in transfected cells
Experimental: as §1

[4] = Acute effect on blood glucose in fed female DIO C57BL/6 mice; type: in vivo; conditions: 50 μg/kg s.c. once daily; t=1, 2, 3, 4, 6 and 24 h post dosing; p<0.001
Experimental: (§2) C57BL/6 Harlan mice are housed in groups in a specific pathogen-free barrier facility on a 12 h light/dark cycle with free access to water and standard or high-fat diet. After prefeeding on high-fat diet, mice are stratified to treatment groups (n=8), so that each group has similar mean body weight. An age-matched group with ad-libitum access to standard chow is included as standard control group. Before the experiment, mice are subcutaneously (s.c.) injected with vehicle solution and weighed for 3 days to acclimate them to the procedures.
1) Acute effect on blood glucose in fed female DIO mice: initial blood samples are taken just before first administration (s.c.) of vehicle (phosphate buffer solution) or the exendin-4 derivatives (dissolved in phosphate buffer), respectively. The volume of administration is 5 mL/kg. The animals have access to water and their corresponding diet during the experiment. Blood glucose levels are measured at t=0 h, t=1 h, t=2 h, t=3 h, t=4 h, t=6 h and t=24 h (method: Accu-Check glucometer). Blood sampling is performed by tail incision without anaesthesia.
(§3) Statistical analyses are performed with Everstat 6.0 by repeated measures two-way ANOVA and Dunnetts post-hoc analyses (glucose profile) and 1-way-ANOVA, followed by Dunnetts post-hoc test (body weight, body fat). Differences versus vehicle-treated DIO control mice are considered statistically significant at the p<0.05 level.
At predefined time points, more blood samples were taken to measure blood glucose and generate the blood glucose profile over 24 h.

[5] = Solubility testing in buffer (HPLC-UV); type: physicochemical
Experimental: Prior to the testing of solubility and stability of a peptide batch, its purity (HPLC-UV) was determined.
. Therefore, solutions from solid samples were prepared in different buffer systems with a concentration of 10 mg/mL compound based on the previously determined % purity. HPLC-UV was performed after 2 h of gentle agitation from the supernatant, which was obtained by 20 min of centrifugation at 4500 rpm.
[…]. This analysis also served as starting point (t0) for the stability testing.

[6] = Chronic effect on body weight and body fat in female DIO C57BL/6 mice, 4 weeks; type: in vivo; conditions: 50 μg/kg qd s.c.
Experimental: as §2
2) Chronic effect on body weight in female DIO mice: mice are treated once (s.c. in evening hours) or twice daily (s.c. in the morning and in the evening), respectively, at the beginning and the end of the light phase with either vehicle or exendin-4 derivatives for 4 weeks. Body weight is recorded daily. Two days before start of treatment and on day 26, total fat mass is measured by nuclear magnetic resonance (NMR).
as §3
Body weight was recorded daily, and body fat content was determined before the start and after 4 weeks of treatment. […] These changes resulted from a decrease in body fat, as shown by the absolute changes in body fat content (Table 10, FIG. 3).
Body weight was recorded daily, and body fat content was determined before the start and after 4 weeks of treatment.

[7] = pH 4.5, target concentration 10 mg/ml, read-out: solubility [mg/ml] pH 4.5
[8] = pH 7.4, target concentration 10 mg/ml, read-out: solubility [mg/ml] pH 7.4

T3 sequence (P47871 26-477): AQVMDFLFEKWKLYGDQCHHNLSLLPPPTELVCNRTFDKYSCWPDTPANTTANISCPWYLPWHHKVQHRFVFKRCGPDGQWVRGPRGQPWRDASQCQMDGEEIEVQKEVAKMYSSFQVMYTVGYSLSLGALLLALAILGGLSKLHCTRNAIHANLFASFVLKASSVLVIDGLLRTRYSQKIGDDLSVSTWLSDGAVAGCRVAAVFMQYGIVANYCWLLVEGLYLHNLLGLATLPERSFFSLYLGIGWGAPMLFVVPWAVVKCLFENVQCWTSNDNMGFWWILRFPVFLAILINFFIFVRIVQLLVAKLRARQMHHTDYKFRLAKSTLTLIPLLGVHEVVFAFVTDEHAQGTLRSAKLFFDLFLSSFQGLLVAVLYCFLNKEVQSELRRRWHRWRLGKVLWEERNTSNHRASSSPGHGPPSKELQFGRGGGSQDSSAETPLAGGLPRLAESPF
T2 sequence (P43220 24-463): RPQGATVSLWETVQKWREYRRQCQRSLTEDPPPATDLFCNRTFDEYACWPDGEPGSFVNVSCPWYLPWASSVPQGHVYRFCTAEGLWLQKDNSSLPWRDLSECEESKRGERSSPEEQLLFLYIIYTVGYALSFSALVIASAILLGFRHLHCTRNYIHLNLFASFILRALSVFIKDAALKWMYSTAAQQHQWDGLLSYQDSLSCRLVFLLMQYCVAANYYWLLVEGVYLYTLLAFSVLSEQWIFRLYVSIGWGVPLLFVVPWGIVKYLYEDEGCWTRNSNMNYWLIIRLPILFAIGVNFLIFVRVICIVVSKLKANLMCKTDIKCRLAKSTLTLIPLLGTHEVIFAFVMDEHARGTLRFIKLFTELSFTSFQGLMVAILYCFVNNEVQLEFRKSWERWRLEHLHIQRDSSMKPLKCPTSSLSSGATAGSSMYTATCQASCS

Row | Compound | EC50 ([1]; Table 6, read-out: EC50 hGIP-R) | EC50 [2] | EC50 ([3]; Table 6) | Blood glucose compared to DIO control mice [4] | EC50 ([1]; Table 7, comparison of residue in position 14, read-out: EC50 hGIP-1) | solubility at 2 h [5, 7] | solubility at 2 h [5, 8] | EC50 ([3]; Table 7, comparison of residue in position 14) | Day on which significant body weight decrease begins ([6]; 4 weeks, continuing through the end of the study) | Daily body weight compared to vehicle DIO control mice ([6]; 4 weeks, p>0.001 by the end of the study (so in the source)) | Body fat change ([6]; DIO mice, 4-week treatment, NMR, mean ± SEM) | Overall weight change ([6]; DIO mice, 4-week treatment, mean ± SEM)
1 | CCCCCCCCCCCCCCCC(=O)N[C@@H](CCC(=O)NCCCC[C@H](NC(=O)[C@H](CCC(N)=O)NC(=O)[C@H](CCCCN)NC(=O)[C@H](CO)NC(=O)[C@H](CC(C)C)NC(=O)[C@H](CC(=O)O)NC(=O)[C@H](CO)NC(=O)[C@@H](NC(=O)[C@H](Cc1ccccc1)NC(=O)[C@@H](NC(=O)CNC(=O)[C@H](CCC(N)=O)NC(=O)C(C)(C)NC(=O)[C@@H](N)Cc1c[nH]cn1)[C@@H](C)O)[C@@H](C)O)C(=O)N[C@@H](CC(=O)O)C(=O)N[C@@H](CCC(=O)O)C(=O)N[C@@H](CCC(N)=O)C(=O)N[C@@H](CCCNC(=N)N)C(=O)N[C@@H](C)C(=O)N[C@@H](CCCCN)C(=O)N[C@@H](CC(C)C)C(=O)N[C@@H](Cc1ccccc1)C(=O)N[C@H](C(=O)N[C@@H](CCC(=O)O)C(=O)N[C@@H](Cc1c[nH]c2ccccc12)C(=O)N[C@@H](CC(C)C)C(=O)NC(C)(C)C(=O)N[C@@H](C)C(=O)NCC(=O)NCC(=O)N1CCC[C@H]1C(=O)N[C@@H](CO)C(=O)N[C@@H](CO)C(=O)NCC(=O)N[C@@H](C)C(=O)N1CCC[C@H]1C(=O)N1CCC[C@H]1C(=O)N1CCC[C@H]1C(=O)N[C@@H](CO)C(N)=O)[C@@H](C)CC)C(=O)O [SEQ ID NO: 10, H-Aib-Q-G-T-F-T-S-D-L-S-K-Q-K(γE-x53)-D-E-Q-R-A-K-L-F-I-E-W-L-Aib-A-G-G-P-S-S-G-A-P-P-P-S-NH2] | 0.89 nM | 0.0035 nM | 0.0524 nM | – | – | – | – | – | – | – | – | –
2 | CCCCCCCCCCCCCCCCCC(=O)N[C@@H](CCC(=O)NCCCC[C@H](NC(=O)[C@H](CCC(N)=O)NC(=O)[C@H](CCCCN)NC(=O)[C@H](CO)NC(=O)[C@H](CC(C)C)NC(=O)[C@H](CC(=O)O)NC(=O)[C@H](CO)NC(=O)[C@@H](NC(=O)[C@H](Cc1ccccc1)NC(=O)[C@@H](NC(=O)CNC(=O)[C@H](CCC(N)=O)NC(=O)C(C)(C)NC(=O)[C@@H](N)Cc1c[nH]cn1)[C@@H](C)O)[C@@H](C)O)C(=O)N[C@@H](CC(=O)O)C(=O)N[C@@H](CCC(=O)O)C(=O)N[C@@H](CCC(N)=O)C(=O)N[C@@H](CCCNC(=N)N)C(=O)N[C@@H](C)C(=O)N[C@@H](CCCCN)C(=O)N[C@@H](CC(C)C)C(=O)N[C@@H](Cc1ccccc1)C(=O)N[C@H](C(=O)N[C@@H](CCC(=O)O)C(=O)N[C@@H](Cc1c[nH]c2ccccc12)C(=O)N[C@@H](CC(C)C)C(=O)NC(C)(C)C(=O)N[C@@H](C)C(=O)NCC(=O)NCC(=O)N1CCC[C@H]1C(=O)N[C@@H](CO)C(=O)N[C@@H](CO)C(=O)NCC(=O)N[C@@H](C)C(=O)N1CCC[C@H]1C(=O)N1CCC[C@H]1C(=O)N1CCC[C@H]1C(=O)N[C@@H](CO)C(N)=O)[C@@H](C)CC)C(=O)O [SEQ ID NO: 9, H-Aib-Q-G-T-F-T-S-D-L-S-K-Q-K(γE-x70)-D-E-Q-R-A-K-L-F-I-E-W-L-Aib-A-G-G-P-S-S-G-A-P-P-P-S-NH2] | 1.16 nM | 0.0064 nM | 0.0154 nM | – | – | – | – | – | – | – | – | –
3 | CCCCCCCCCCCCCCCC(=O)N[C@@H](CCC(=O)N[C@@H](CCC(=O)NCCCC[C@H](NC(=O)[C@H](CCC(N)=O)NC(=O)[C@H](CCCCN)NC(=O)[C@H](CO)NC(=O)[C@H](CC(C)C)NC(=O)[C@H](CC(=O)O)NC(=O)[C@H](CO)NC(=O)[C@@H](NC(=O)[C@H](Cc1ccccc1)NC(=O)[C@@H](NC(=O)CNC(=O)[C@H](CCC(N)=O)NC(=O)C(C)(C)NC(=O)[C@@H](N)Cc1c[nH]cn1)[C@@H](C)O)[C@@H](C)O)C(=O)N[C@@H](CC(=O)O)C(=O)N[C@@H](CCC(=O)O)C(=O)N[C@@H](CCC(N)=O)C(=O)N[C@@H](CCCNC(=N)N)C(=O)N[C@@H](C)C(=O)N[C@@H](CCCCN)C(=O)N[C@@H](CC(C)C)C(=O)N[C@@H](Cc1ccccc1)C(=O)N[C@H](C(=O)N[C@@H](CCC(=O)O)C(=O)N[C@@H](Cc1c[nH]c2ccccc12)C(=O)N[C@@H](CC(C)C)C(=O)NC(C)(C)C(=O)N[C@@H](CCCCN)C(=O)NCC(=O)NCC(=O)N1CCC[C@H]1C(=O)N[C@@H](CO)C(=O)N[C@@H](CO)C(=O)NCC(=O)N[C@@H](C)C(=O)N1CCC[C@H]1C(=O)N1CCC[C@H]1C(=O)N1CCC[C@H]1C(=O)N[C@@H](CO)C(N)=O)[C@@H](C)CC)C(=O)O)C(=O)O [SEQ ID NO: 15, H-Aib-Q-G-T-F-T-S-D-L-S-K-Q-K(γE-γE-x53)-D-E-Q-R-A-K-L-F-I-E-W-L-Aib-K-G-G-P-S-S-G-A-P-P-P-S-NH2] | – | – | – | significant decrease in blood glucose | 11.9 nM | > 8 mg/mL | > 8 mg/mL | 0.394 nM | 4 days | statistically significant decrease | -4.01 ± 0.68 g | -4.59 ± 1.1 g
4 | CCCCCCCCCCCCCCCC(=O)N[C@@H](CCC(=O)N[C@@H](CCC(=O)NCCCC[C@H](NC(=O)[C@H](CCC(N)=O)NC(=O)[C@H](CCCCN)NC(=O)[C@H](CO)NC(=O)[C@H](CC(C)C)NC(=O)[C@H](CC(=O)O)NC(=O)[C@H](CO)NC(=O)[C@@H](NC(=O)[C@H](Cc1ccccc1)NC(=O)[C@@H](NC(=O)CNC(=O)[C@H](CCC(N)=O)NC(=O)C(C)(C)NC(=O)[C@@H](N)Cc1c[nH]cn1)[C@@H](C)O)[C@@H](C)O)C(=O)N[C@@H](CC(=O)O)C(=O)N[C@@H](CCC(=O)O)C(=O)N[C@@H](CCC(N)=O)C(=O)N[C@@H](CCCNC(=N)N)C(=O)N[C@@H](C)C(=O)N[C@@H](CCCCN)C(=O)N[C@@H](CC(C)C)C(=O)N[C@@H](Cc1ccccc1)C(=O)N[C@H](C(=O)N[C@@H](CCC(=O)O)C(=O)N[C@@H](Cc1c[nH]c2ccccc12)C(=O)N[C@@H](CC(C)C)C(=O)NC(C)(C)C(=O)N[C@@H](CCCCN)C(=O)N[C@H](C)C(=O)NCC(=O)N1CCC[C@H]1C(=O)N[C@@H](CO)C(=O)N[C@@H](CO)C(=O)NCC(=O)N[C@@H](C)C(=O)N1CCC[C@H]1C(=O)N1CCC[C@H]1C(=O)N1CCC[C@H]1C(=O)N[C@@H](CO)C(N)=O)[C@@H](C)CC)C(=O)O)C(=O)O [SEQ ID NO: 14, H-Aib-Q-G-T-F-T-S-D-L-S-K-Q-K(γE-γE-x53)-D-E-Q-R-A-K-L-F-I-E-W-L-Aib-K-dAla-G-P-S-S-G-A-P-P-P-S-NH2] | – | – | – | – | – | > 8 mg/mL | > 8 mg/mL | – | – | – | – | –
